{"source": "paper PMC6669322", "about": "“Small Molecule Binding to Alzheimer Risk Factor CD33 Promotes Aβ Phagocytosis” (iScience, 2019)", "system": "differentiated THP-1 cells", "experiment": "THP-1 phagocytosis assay (pHrodo E. coli BioParticles), wild-type cells", "type": "cell-based, human", "conditions": "30 min pre-treatment, in words", "source_text": "Having shown that P22 binds specifically to the sialic acid-binding site of this domain we now have a chemical tool to answer the question of whether the sialic acid-binding site is the appropriate target for small molecule ligands that might promote Aβ uptake. Siglecs preferentially recognize multivalent presentation of their ligands ([Rillahan et al., 2014], [Büll et al., 2016]), and for this reason we conjugated the biotinylated form of P22 to microparticles labeled with both FITC and streptavidin (P22 microparticles) (see Transparent Methods). More than 60% CD33-transfected BV2 cells were positive for P22 microparticles compared with only 30% cells that were only incubated with control particles (unconjugated to P22) (Figure 4A). […]\nFigure 4 Effect of P22 on Phagocytosis The cells were treated with P22 conjugated to microparticles labeled with both streptavidin and fluorescein isothiocyanate (FITC), or with microparticles without P22 conjugated as control. […] (C) Quantification of phagocytic differentiated human THP-1 cells after incubation with P22 monomer, P22 conjugated microparticles, or microparticles without P22 conjugation. […]\nTHP-1 cells (control and CD33KO) were differentiated in growth media (RPMI 1640, 10% FCS) supplemented with 100 ng/mL PMA for 3 days. […] Differentiated cells were then lifted, counted and 75,000 cells/well were plated in a 96 well plate. […]", "data": [{"smiles": "Cc1cc(C(=O)NC[C@@H](O)[C@@H](O)[C@@H]2O[C@@](OC[C@H]3O[C@@H](O[C@H]4[C@H](O)[C@@H](O)[C@H](OCCN)O[C@@H]4CO)[C@H](O)[C@@H](O)[C@H]3O)(C(=O)O)C[C@H](O)[C@H]2NC(=O)Cn2cc(C3CCCCC3)nn2)cc(C)c1O", "note": "[P22, β-D-Glucopyranoside, 2-aminoethyl O-[N-[2-(4-cyclohexyl-1H-1,2,3-triazol-1-yl)acetyl]-9-deoxy-9-[(4-hydroxy-3,5-dimethylbenzoyl)amino]-α-neuraminosyl] (2→6)-O-β-D-galactopyranosyl-(1→4)-]", "values": [{"measurement": "effect on phagocytosis of E. coli BioParticles", "value": "no effect"}]}]}
